Each structure is given as a SMILES string. Structures can show the parent of a compound that is named as a salt. Bounds are passed on as bounds.

For the first experiment, the target named is T1, protein farnesyltransferase (Rattus norvegicus, UniProt Q02293+Q04631).
T1 construct: Rat brain protein farnesyltransferase activity is measured; from tissue; host or cells: rat brain; purified according to Reiss et al., Cell 62:81-88 (1990), steps one through three
Nature of the experiment: in vitro inhibition of protein farnesyltransferase (scintillation proximity assay, biotin-K Ras B fragment). Format: biochemical. The settings on record: at 1 × 10^-5 M. The gist of the method: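 Rat brain enzyme, purified through three steps, in a scintillation proximity assay kit with biotin-K Ras B fragment substrate at 0.1 mM final. Value is % inhibition of farnesylation.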
In general terms: SPA uses beads or plates that emit light when radiolabelled molecules are held near them.
By inhibition is commonly meant the percentage by which the read-out fell short of the control. For the molecule `CSCC[C@H](NC(=O)c1ccc(CNc2cc[nH]n2)cc1-c1ccccc1)C(=O)O` [Example 370], testing at 10 µM gave an inhibition of 86%.

With `CSCC[C@H](NC(=O)c1ccc(NC(=O)c2cccc(N(C)C)c2)cc1-c1ccccc1)C(=O)O` [Example 752], 10 µM produced 58% inhibition.

`COc1cc(Cl)ccc1C(=O)Nc1ccc(C(=O)N[C@@H](CCSC)C(=O)O)c(-c2ccccc2)c1` [Example 753]: the inhibition at 10 µM is 55%.

As to `CSCC[C@H](NC(=O)c1ccc(CNCCC2CCCCC2)cc1-c1ccccc1)C(=O)O` [Example 663], the inhibition at 10 µM turned out to be 43%.

For `COc1ccc(Br)c(C(=O)Nc2ccc(C(=O)N[C@@H](CCSC)C(=O)O)c(-c3ccccc3)c2)c1` [Example 754], 10 µM produced 40% inhibition.

The same experiment, now with this note: at 1 × 10^-6 M.
Turning to `Cc1ccccc1-c1cc(CCc2cccc(Oc3ccccc3)c2)ccc1C(=O)N[C@@H](CC[S+](C)[O-])C(=O)O` (stereo partly drawn) [Example 460], the “% inhibition of farnesyltransferase” value is given as 88%.

Turning to `CSCC[C@H](NC(=O)c1ccc(COC2(c3ccccc3)CCN(C(=O)OC(C)(C)C)CC2)cc1-c1ccccc1C)C(=O)[O-].[Li+]` [Example 816], the “% inhibition of farnesyltransferase” value is listed as 87%.

In the case of `CSCC[C@H](NC(=O)c1ccc(OCCCOc2ccccc2)cc1-c1ccccc1C)C(=O)O` [Example 566], the “% inhibition of farnesyltransferase” value is 98%.

Take `CSCC[C@H](NC(=O)c1ccc(CCc2cccc3ccccc23)cc1-c1ccccc1C)C(=O)[O-].[Li+]` [Example 467]: the “% inhibition of farnesyltransferase” value is recorded as 97%.

As for `CSCC[C@H](NC(=O)c1ccc(COCc2ccsc2)cc1-c1ccccc1C)C(=O)[O-].[Li+]` [Example 274], the “% inhibition of farnesyltransferase” value is 94%.

As for `CSCC[C@H](NC(=O)c1ccc(S(=O)(=O)NCCN2CCOCC2)cc1-c1ccccc1C)C(=O)O` [Example 775], the “% inhibition of farnesyltransferase” value was 32%.

As for `CSCC[C@H](NC(=O)c1ccc(OCCOc2ccccc2)cc1-c1ccccc1C)C(=O)O` [Example 561], the “% inhibition of farnesyltransferase” value is 91%.

Take `Cc1ccccc1-c1cc(CN(C2CC2)C(C)(C)CC2CCCCC2)ccc1C(=O)N[C@@H](CCS(C)(=O)=O)C(=O)O` [Example 320]: the “% inhibition of farnesyltransferase” value is given as 93%.

For the molecule `CSCC[C@H](NC(=O)c1ccc(CS[C@H](CO)Cc2ccccc2)cc1-c1ccccc1)C(=O)O` [Example 545], the “% inhibition of farnesyltransferase” value is on record as 88%.

On to `CSCC[C@H](NC(=O)c1ccc(S(=O)(=O)NC2CCN(Cc3ccccc3)CC2)cc1-c1ccccc1C)C(=O)O` [Example 773], for which the “% inhibition of farnesyltransferase” value was determined as 41%.

Still in this experiment, the particulars now being: at 1 × 10^-6 M; read-out: % inhibition of farnesyltransferase.
For the molecule `CSCC[C@H](NC(=O)c1ccc(CNCCN(C(C)C)C(C)C)cc1-c1ccccc1)C(=O)O` [Example 636], the inhibition at 1 µM came to 72%.

In the case of `CSCC[C@H](NC(=O)c1ccc(CN(C)C(C)(C)Cc2ccccc2)cc1-c1ccccc1C)C(=O)O` [Example 982, N-[4-(N-Methyl-N-(1,1-dimethyl-2-phenylethyl)aminomethyl)-2-(2-methylphenyl)-benzoyl]methionine lithium salt], the inhibition at 1 µM is 64%.

On to `CSCC[C@H](NC(=O)c1ccc(CNCC(O)c2cccc(O)c2)cc1-c1ccccc1)C(=O)O` (stereo partly drawn) [Example 661], for which the inhibition at 1 µM amounted to 45%.

`COc1ccc(CNCc2ccc(C(=O)N[C@@H](CCSC)C(=O)O)c(-c3ccccc3)c2)c(OC)c1` [Example 655]: the inhibition at 1 µM came to 35%.

For the molecule `CSCC[C@H](NC(=O)c1ccc(CNCCSC(C)(C)C)cc1-c1ccccc1)C(=O)O` [Example 627], the inhibition at 1 µM came out at 85%.

On to `CSCC[C@H](NC(=O)c1ccc(CN(CCC#N)Cc2ccccc2)cc1-c1ccccc1)C(=O)O` [Example 649], for which the inhibition at 1 µM was 86%.

In the case of `CSCC[C@H](NC(=O)c1ccc(NCCO)cc1-c1ccccc1)C(=O)O` [Example 502, N-[4-N-2-hydroxyethylamino-2-phenylbenzoyl]methionine], the inhibition at 1 µM was found to be 24%.

The experiment is the same for the next values; noted with them: at 1 × 10^-7 M.
Turning to `CSCC[C@H](NC(=O)c1ccc(COc2ccc(Oc3ccccc3)cc2)cc1-c1ccccc1C)C(=O)[O-].[Li+]` [Example 795], the “% inhibition of farnesyltransferase” value is 87%.

`CSCC[C@H](NC(=O)c1ccc(COCc2ccc(-c3ccc(SC)cc3)o2)cc1-c1ccccc1C)C(=O)[O-].[Li+]` [Example 447]: the “% inhibition of farnesyltransferase” value was determined as 91%.

For the molecule `CSCC[C@H](NC(=O)c1ccc(/C=C/c2ccc(Oc3ccccc3Cl)cc2)cc1-c1ccccc1C)C(=O)O` [Example 854], the “% inhibition of farnesyltransferase” value is given as 78%.

For the molecule `CSCC[C@H](NC(=O)c1ccc(COCc2cnc(-c3cccc(Cl)c3)o2)cc1-c1ccccc1C)C(=O)[O-].[Li+]` [Example 893], the “% inhibition of farnesyltransferase” value amounted to 87%.

For `CSCC[C@H](NC(=O)c1ccc(CCc2ccc(Oc3ccccc3N)cc2)cc1-c1ccccc1C)C(=O)O` [Example 857], the “% inhibition of farnesyltransferase” value turned out to be 92%.

On to `CSCC[C@@H](C(=O)[O-])N(C)C(=O)c1ccc(COCCCC2CCCCC2)cc1-c1ccccc1C.[Li+]` [Example 597], for which the “% inhibition of farnesyltransferase” value is given as 75%.

Take `CSCC[C@H](NC(=O)c1ccc(CCc2ccccc2Cc2ccccc2)cc1-c1ccccc1C)C(=O)O` [Example 458]: the “% inhibition of farnesyltransferase” value is given as 87%.

With `CSCC[C@H](NC(=O)c1ccc(CSc2nc3ccccc3[nH]2)cc1-c1ccccc1C)C(=O)O` [Example 732], the “% inhibition of farnesyltransferase” value came to 84%.

For `CSCC[C@H](NC(=O)c1ccc(COCc2ccc(-c3cccc([N+](=O)[O-])c3)o2)cc1-c1ccccc1C)C(=O)[O-].[Li+]` [Example 440], the “% inhibition of farnesyltransferase” value was 92%.

On to `COc1cccc(-c2ccc(COCc3ccc(C(=O)N[C@@H](CCSC)C(=O)[O-])c(-c4ccccc4C)c3)o2)c1.[Li+]` [Example 442], for which the “% inhibition of farnesyltransferase” value is listed as 88%.

Consider `CSCC[C@H](NC(=O)c1ccc(COCCc2ccc3ccccc3c2)cc1-c1ccccc1C)C(=O)[O-].[Li+]` [Example 593], for which the “% inhibition of farnesyltransferase” value came out at 86%.

The same experiment, now with this note: at 1 × 10^-7 M; read-out: % inhibition of farnesyltransferase.
Consider `CCCCS(=O)(=O)N(Cc1ccc(C(=O)N[C@@H](CCSC)C(=O)O)c(-c2ccccc2C)c1)[C@H](CSCC)CC1CCCCC1` [Example 950, N-[4-N-Butanesulfoyl-N-(3-Cyclohexyl-1-ethylthiopropan-2-yl)aminomethyl-2-(2-methylphenyl)-benzoyl]methionine], for which the inhibition at 0.1 µM was determined as 71%.

As to `CSCC[C@H](NC(=O)c1ccc(CN[C@H](CSc2ccccc2)CC2CCCCC2)cc1-c1ccccc1C)C(=O)O` [Example 623, N-[4-(3-cyclohexyl-1-phenylthiopropan-2-ylaminomethyl)-2-(2-methylphenyl)benzoyl]methionine Lithium Salt], the inhibition at 0.1 µM came to 96%.

For `CSCC[C@H](NC(=O)c1ccc(CN(Cc2ccccc2)Cc2cncs2)cc1-c1ccccc1C)C(=O)O` [Example 549, N-[4-N-benzyl-N-(thiazol-5-ylmethyl)aminomethyl-2-(2-methylphenyl)benzoyl]methionine], the inhibition at 0.1 µM stood at 98%.

`CCCCN(CCCC)Cc1ccc(C(=O)N[C@@H](CCSC)C(=O)O)c(-c2ccccc2C)c1` [Example 917, N-[4-(N,N-Dibutylaminomethyl)-2-(2-methylphenyl)benzoyl]methionine]: the inhibition at 0.1 µM worked out at 78%.

`CCCCN(CCCC)C(=O)CN(C)Cc1ccc(C(=O)N[C@@H](CCSC)C(=O)O)c(-c2ccccc2C)c1` [Example 913, N-[4-(N-(N,N-dibutylacetamido)-N-methylaminomethyl)-2-(2-methylphenyl)benzoyl]methionine]: the inhibition at 0.1 µM worked out at 89%.

With `CSCC[C@H](NC(=O)c1ccc(NC[C@@H]2C[C@H](S)CN2)cc1-c1ccccc1)C(=O)O` [Example 959, N-[4-((2S,4S)-4-thiolpyrrolidin-2-ylmethylamino)-2-phenylbenzoyl]methionine], the inhibition at 0.1 µM is > 50%.

Staying with this experiment, now noted: at 1 × 10^-8 M.
Turning to `CSCC[C@H](NC(=O)c1ccc(COCc2cc(-c3ccc(Cl)cc3)co2)cc1-c1ccccc1C)C(=O)[O-].[Li+]` [Example 904], the “% inhibition of farnesyltransferase” value amounted to 85%.

Consider `COc1cccc(COCc2ccc(C(=O)N[C@@H](CCSC)C(=O)[O-])c(-c3ccccc3C)c2)c1.[Li+]` [Example 932], for which the “% inhibition of farnesyltransferase” value was determined as 60%.

Take `CSCC[C@H](NC(=O)c1ccc(/C=C/c2ccc(Oc3cccc(Cl)c3)cc2)cc1-c1ccccc1C)C(=O)O` [Example 858]: the “% inhibition of farnesyltransferase” value was determined as 60%.

`CSCC[C@H](NC(=O)c1ccc(COCc2cnc(-c3ccc(Cl)cc3)s2)cc1-c1ccccc1C)C(=O)[O-].[Li+]` [Example 901]: the “% inhibition of farnesyltransferase” value came out at 84%.

Still in this experiment, the particulars now being: at 1 × 10^-8 M; read-out: % inhibition of farnesyltransferase.
For `CSCC[C@H](NC(=O)c1ccc(CN(C)C(CC2CCCCC2)CC2CCCCC2)cc1-c1ccccc1C)C(=O)O` [Example 907, N-[4-(N-(1,3-Dicyclohexylpropan-2-yl)-N-methylaminomethyl)-2-(2-methylphenyl)-benzoyl]methionine], the inhibition at 0.01 µM worked out at 79%.

Consider `COc1ccc(N(Cc2ccccc2)Cc2ccc(C(=O)N[C@@H](CCSC)C(=O)O)c(-c3ccccc3C)c2)cc1` [Example 840, N-[4-(N-benzyl-N-(4-methoxyphenyl)aaminomethyl)-2-(2-methylphenyl)benzoyl]methionine lithium salt], for which the inhibition at 0.01 µM came to 73%.

On to `CSCC[C@H](NC(=O)c1ccc(CN[C@H](CSC2CCCCC2)CC2CCCCC2)cc1-c1ccccc1C)C(=O)O` [Example 766, lithium salt], for which the inhibition at 0.01 µM amounted to 95%.

In the case of `CSCC[C@H](NC(=O)c1ccc(CN(CCC2CCCCC2)Cc2cncs2)cc1-c1ccccc1C)C(=O)O` [Example 986], the inhibition at 0.01 µM was found to be 95%.

Staying with this experiment, now noted: read-out: % inhibition of farnesyltransferase.
In the case of `CSCC[C@H](NC(=O)c1ccc(CN(Cc2ccccc2)c2cccc([N+](=O)[O-])c2)cc1-c1ccccc1C)C(=O)O` [Example 842, N-[4-(N-benzyl-N-(3-nitrophenyl)aminomethyl)-2-(2-methylphenyl)benzoyl]methionine lithium salt], the inhibition at 0.01 µM came to 88%.

Values taken from patent US6310095A, “Inhibitors of protein isoprenyl transferases” (University of Pittsburgh, priority 1998, dated 2001).
